Reference: PubChem BioAssay (NCI)
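Results reflect a 48-hour exposure of cells in 96-well plates to compound at five concentrations. TGI: concentration producing complete growth inhibition.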

Assays:
Assay in all cases: NCI-60 cell line screen, 48 h
[1] = tested on: DLD-1 colon
[2] = tested on: DMS 114 small cell lung
[3] = tested on: DMS 273 small cell lung
[4] = tested on: KM20L2 colon
[5] = tested on: LXFL 529 NSCLC
[6] = tested on: M19-MEL melanoma
[7] = tested on: SNB-78 CNS
[8] = tested on: XF 498 CNS
[9] = tested on: RXF-631 renal

## CC(OC1CC(=O)CC2C(=O)C=CC(=O)C12)c1ccccc1 (stereo not drawn)
[1]
  TGI: 26.7 µM
[2]
  TGI: 23 µM
[3]
  TGI: 33.8 µM
[4]
  TGI: 31 µM
[5]
  TGI: 19.8 µM
[6]
  TGI: 29.8 µM
[7]
  TGI: 36.3 µM
[8]
  TGI: 29.4 µM

## CCOC(=O)C1(Br)C(c2ccccc2)NC(=O)N(C2OC(COC(=O)c3ccccc3)C(OC(=O)c3ccccc3)C2OC(=O)c2ccccc2)C1(C)Br (stereo not drawn)
[1]
  TGI: > 100 µM
[2]
  TGI: 49.6 µM
[3]
  TGI: > 100 µM
[4]
  TGI: > 100 µM
[5]
  TGI: > 75.7 µM
[6]
  TGI: > 100 µM
[9]
  TGI: 50 µM

## CC(C)c1cccc(C(C)C)c1NC(=O)C(=O)CC(=O)CC(c1ccccc1)c1c(O)c2ccccc2oc1=O (stereo not drawn)
[1]
  TGI: > 100 µM
[2]
  TGI: > 100 µM
[4]
  TGI: > 100 µM

## Nc1ccc(C(=O)NN2C(=O)C(Cl)C2c2cc(Br)cc(Br)c2O)cc1 (stereo not drawn)
[1]
  TGI: > 100 µM
[2]
  TGI: 25.4 µM
[3]
  TGI: > 100 µM
[4]
  TGI: > 100 µM
[5]
  TGI: > 100 µM
[6]
  TGI: 48.3 µM
[7]
  TGI: > 100 µM
[8]
  TGI: > 100 µM

## Fc1ccc2c(c1)SC1Oc3ccccc3-c3c1c-2nn3-c1ccccc1 (stereo not drawn)
[1]
  TGI: > 100 µM
[2]
  TGI: > 100 µM
[3]
  TGI: > 100 µM
[4]
  TGI: > 100 µM
[5]
  TGI: > 100 µM
[6]
  TGI: > 100 µM
[9]
  TGI: > 100 µM
[7]
  TGI: > 100 µM
[8]
  TGI: > 100 µM

## COc1cc(C(C#N)NNC(=O)Cc2ccccc2)cc(OC)c1OC (stereo not drawn)
[1]
  TGI: > 100 µM
[2]
  TGI: > 100 µM
[3]
  TGI: > 100 µM
[4]
  TGI: > 100 µM
[5]
  TGI: > 100 µM
[6]
  TGI: > 100 µM
[7]
  TGI: > 100 µM

## CCCCNC(=O)OCC(COc1ccccc1OC)OC(=O)NCCCC (stereo not drawn)
[1]
  TGI: > 100 µM
[2]
  TGI: > 100 µM
[3]
  TGI: > 100 µM
[4]
  TGI: > 100 µM
[5]
  TGI: > 100 µM
[6]
  TGI: > 100 µM
[9]
  TGI: > 100 µM
[7]
  TGI: > 100 µM
[8]
  TGI: > 100 µM

## C=CC1(c2ccccc2Cl)N/C(=C/OCC)CO1 (stereo not drawn)
[1]
  TGI: > 100 µM
[2]
  TGI: > 100 µM
[3]
  TGI: > 100 µM
[4]
  TGI: > 100 µM
[5]
  TGI: > 100 µM
[6]
  TGI: > 100 µM
[9]
  TGI: > 100 µM
[7]
  TGI: > 100 µM
[8]
  TGI: > 100 µM

## O=[N+]([O-])c1cc2c(cc1O)[nH]c1cccc([N+](=O)[O-])c12
[1]
  TGI: > 100 µM
[2]
  TGI: > 100 µM
[3]
  TGI: > 100 µM
[6]
  TGI: > 100 µM
[7]
  TGI: > 100 µM
[8]
  TGI: > 100 µM

## COc1ccc2nc3ccccc3c(NCCCCCN(CCCl)CCCl)c2c1
[1]
  TGI: 0.793 µM
[3]
  TGI: 0.343 µM
[4]
  TGI: 1.02 µM
[5]
  TGI: 0.81 µM
[7]
  TGI: 2.96 µM
[8]
  TGI: 0.0717 µM

## COc1ccc(OC)c(/C=C/C(=O)C(C)(C)C)c1
[1]
  TGI: 48.4 µM
[2]
  TGI: 32.1 µM
[3]
  TGI: 50.9 µM
[4]
  TGI: 50.3 µM
[5]
  TGI: 36.4 µM
[6]
  TGI: 34.9 µM
[9]
  TGI: 85.1 µM

## CCOc1ccccc1NC(=O)C(=O)C(C(=O)c1ccc2ccccc2c1)C1OC(=O)c2ccccc21 (stereo not drawn)
[1]
  TGI: 33.4 µM
[2]
  TGI: 33.6 µM
[3]
  TGI: 31.7 µM
[4]
  TGI: 77 µM
[5]
  TGI: 19.4 µM
[9]
  TGI: 22.4 µM
[7]
  TGI: 75.8 µM

## CCCCCCCCCCCCC/C=C1\C[C@H](O)COC1=O
[1]
  TGI: 32 µM
[3]
  TGI: 28 µM
[4]
  TGI: 31.7 µM
[5]
  TGI: 29.8 µM
[6]
  TGI: 33.6 µM
[7]
  TGI: 33.9 µM
[8]
  TGI: 30.5 µM

## CN/C=C(/c1ccc(OC)cc1)C(O)c1ccc(OC)c(OC)c1 (stereo not drawn)
[1]
  TGI: > 100 µM
[2]
  TGI: > 100 µM
[3]
  TGI: > 100 µM
[4]
  TGI: > 100 µM
[6]
  TGI: > 100 µM
[9]
  TGI: > 100 µM
[8]
  TGI: > 100 µM

## Nc1ccc2ncc(Nc3ccc(F)cc3)nc2c1
[1]
  TGI: > 100 µM
[2]
  TGI: > 100 µM
[3]
  TGI: > 100 µM
[6]
  TGI: > 100 µM
[7]
  TGI: > 100 µM
[8]
  TGI: > 100 µM

## NCCn1ccc(NC(c2ccccc2)(c2ccccc2)c2ccccc2)nc1=O
[1]
  TGI: > 100 µM
[2]
  TGI: 38.6 µM
[4]
  TGI: 32.2 µM
[5]
  TGI: 30.3 µM
[6]
  TGI: 42.2 µM
[7]
  TGI: 42.5 µM
[8]
  TGI: 26.1 µM

## CC(C)[C@H]1CO[C@@H]2O[C@H](C)CC(=O)N21
[1]
  TGI: > 100 µM
[2]
  TGI: > 100 µM
[4]
  TGI: > 100 µM
[5]
  TGI: > 100 µM
[6]
  TGI: > 100 µM

## Cc1ccc(/C=C/C(=O)C(C)C)cc1
[1]
  TGI: > 100 µM
[2]
  TGI: > 100 µM
[4]
  TGI: > 100 µM
[5]
  TGI: > 100 µM
[6]
  TGI: > 100 µM
[7]
  TGI: > 100 µM

## Cc1cccc(Cl)c1NC(N)=S
[1]
  TGI: > 100 µM
[2]
  TGI: 82 µM
[3]
  TGI: > 100 µM
[4]
  TGI: > 100 µM
[5]
  TGI: > 100 µM
[6]
  TGI: > 100 µM
[9]
  TGI: > 100 µM
[7]
  TGI: > 100 µM

## Cc1cc(Cl)ccc1NC(=O)C(=O)Cc1ccc([N+](=O)[O-])c([N+](=O)[O-])c1CC(=O)C(=O)Nc1ccc(Cl)cc1C
[2]
  TGI: > 100 µM
[3]
  TGI: > 100 µM
[4]
  TGI: > 100 µM
[5]
  TGI: > 100 µM
[6]
  TGI: > 100 µM
[7]
  TGI: > 100 µM
[8]
  TGI: > 100 µM

## O=C(CSc1nnc(Cc2ccccc2)o1)Nc1ccccc1Cl
[1]
  TGI: > 100 µM
[2]
  TGI: > 100 µM
[3]
  TGI: > 100 µM
[4]
  TGI: > 100 µM
[5]
  TGI: > 100 µM
[6]
  TGI: > 100 µM
[7]
  TGI: > 100 µM

## COc1cc2c(cc1OC)C(=O)Cc1ccc3c(c1CNCC2)OCO3
[1]
  TGI: > 100 µM
[2]
  TGI: > 100 µM
[4]
  TGI: > 100 µM
[5]
  TGI: > 100 µM
[6]
  TGI: > 100 µM
[7]
  TGI: > 100 µM
[8]
  TGI: > 100 µM
